According to patent US20220323454A1, “PHENOTHIAZINES AND THEIR DERIVATIVES FOR USE AS A MEDICAMENT” (Guangzhou Virotech Pharmaceutical Co., Ltd., priority 2019, published 2022):

Assays:
EL4-OVA-mPDL1 cells = assay: EL4-OVA-mPDL1 subcutaneous transplanted tumor in Rag1−/− mice given CTL cells; assay type: in vivo, mouse
Description: (1) Lymphoma cells overexpressing chicken ovalbumin OVA and mouse PD-L1, namely EL4-OVA-mPDL1 cells, were resuspended in BD Matrigel, in which, for one side of one mouse, 2×10^6 cells were resuspended in 100 μl BD Matrigel.
(2) The mixture of cells and Matrigel was inoculated into the left and right flanks of Rag1−/− mice subcutaneously, each at a dosage of 100 μl.
(3) When the tumor was fixed about 5 days after inoculation, activated OT-1 T cells (i.e., 2×10^6 CTL cells/mouse) were injected through the tail vein, and the mice were divided into 3 groups, namely the CTL cell group, the CTL cell +10 mg/kg/2 days PD-1 antibody group, and the CTL cell +40 mg/kg/day MTC group.
(4) The length and width of the transplanted tumor of each group of mice were measured from the day of tail vein injection of CTL cells, and every other day, and the tumor volume was calculated as length×width^2/2 (FIG. 5A).

PD-1 recruitment of SHP2 = target: T1, PD-1 recruitment of SHP2 (Homo sapiens, UniProt Q06124+Q15116); assay: Co-IP of PD-1-Flag and SHP2 in 293T cells; assay type: cell-based; conditions: 293T co-transfected with PD-1-Flag and SHP2 plasmids, MTC at different concentrations; FIG. 7C
T1 construct: expressed in transfected cells
Description: (3) The PD-1-Flag plasmid and SHP2 plasmid were co-transfected in 293T cells, and the cells were then treated with MTC at different concentrations. The ability of PD-1 to recruit SHP2 was detected by Co-IP.

EG-7-PD-L1 cells = assay: CTL killing of EG-7-PD-L1 target cells (PI staining, flow cytometry); assay type: cell-based, mouse; conditions: CTL : EG-7-PD-L1 5:1; 1 μM, 5 μM, 10 μM MTC, 4 hours; FIG. 4A
Description: (1) The preparation of CTL cells was described in Example 2.
(2) EG-7-PD-L1 cells were labeled with 5 nM CFSE. CTL cells and EG-7-PD-L1 were mixed at a ratio of 5:1, treated with 1 μM, 5 μM, and 10 μM MTC, respectively, for 4 hours, and then stained with 10 μg/mL PI. The apoptosis of target cells EG-7-PD-L1 was detected by flow cytometry, and then the killing ability of CTL cells to target cells was assessed.

OT-1 CTL cells = assay: CTL cell division under PD-L1 protein inhibition (CFSE, flow cytometry); assay type: cell-based; conditions: 100 nM MTC; 10 nM SIINFEKL, 10 nM IL-2, 10 μg/mL mouse PD-L1 protein; 24, 48, 72 hours; FIG. 2B
Description: (1) Preparation of CTL cells: The spleens of OT1 mice were obtained, ground and added with red blood cell lysate, to prepare single-cell suspension. The culture medium was 1640+10% FBS+50 μM βME+10 nM IL-2. Cell density was adjusted to about 2-4 million/mL. The cells were added with 10 nM OVA257-264, and cultured in a cell incubator at 37° C., 5% CO2. From the day of CTL preparation, cells were stained with FITC-labeled PD-1 antibody every day, and the changes of PD-1 expression on the cell surfaces were detected by flow cytometry.
(2) The CTL cells were labeled with 5 nM CFSE, stimulated by 10 nM SIINFEKL and 10 nM IL-2, and added with 10 μg/mL mouse PD-L1 protein. The experimental group was also added with 100 nM MTC and stimulated for 24, 48, and 72 hours. The effects of PD-L1 protein and MTC on CTL cell division were observed by flow cytometry.

[1] = test system: Jurkat-PD-1-NFAT-LUC cells; assay: NFAT-luciferase activity in Jurkat-PD-1-NFAT-LUC cells co-cultured with Raji-PD-L1 cells; assay type: cell-based, human; conditions: 4.86 μM MTC or LMT added with Raji-PD-L1 cells, 6 h co-culture; FIG. 1E
Description: (§1) (1) Jurkat cells were used to construct a stable cell line expressing PD-1. The pCAGin-PD-1 plasmid was electroporated into Jurkat cells, which were then screened with 900 μg/mL G418 antibiotic and flow-sorted for single clones. Jurkat-PD-1 cells were then electroporated into a DNA fragment that controls the luciferase gene through the NFAT-binding site (referred to as NFAT-LUC). A single clone was then flow-sorted and named clone 5. Using this cell, the expression level of IL-2 can be measured by the activity of luciferase. Raji cells stably expressing PD-L1 were constructed, and the pCDNA-PD-L1 plasmid was electroporated into the Raji cells, followed by screening with 2 μg/mL puromycin, and then flow-sorted single clones and named clone 1.
(4) A 96-well plate was coated with 10 μg/mL CD3 antibody/10 μg/mL CD28 antibody overnight at 4° C., and excess antibody then washed off with PBS. Raji cells or Raji-PD-L1 cells were co-cultured with Jurkat-PD-1-NFAT-LUC cells at a ratio of 1:1, or to a mixture of Raji-PD-L1 cells and Jurkat-PD-1-NFAT-LUC cells at a ratio of 1:1 was added 4.86 μM MTC or LMT. Luciferase substrate was added after 6h co-culture and the luciferase activity was measured by a microplate reader.

[2] = test system: Jurkat-PD-1-NFAT-LUC cells; assay: IL-2 secretion by Jurkat-PD-1-NFAT-LUC cells co-cultured with Raji-PD-L1 cells (ELISA); assay type: cell-based, human; conditions: 6 hours, FIG. 1D
Description: as §1
(3) A 96-well plate was coated with 10 μg/mL CD3 antibody/10 μg/mL CD28 antibody overnight at 4° C. and excess antibody was washed off with PBS. Raji cells or Raji-PD-L1 cells were co-cultured with Jurkat-PD-1-NFAT-LUC cells at a ratio of 1:1, or to a mixture of Raji-PD-L1 cells and Jurkat-PD-1-NFAT-LUC cells at a ratio of 1:1 was added 1 μM MTC or 10 μg/mL PD1 antibody for co-culture; after 6 hours of co-culture, the secretion of IL-2 in the supernatant was measured by ELISA.

T1 sequence (Q15116 25-288): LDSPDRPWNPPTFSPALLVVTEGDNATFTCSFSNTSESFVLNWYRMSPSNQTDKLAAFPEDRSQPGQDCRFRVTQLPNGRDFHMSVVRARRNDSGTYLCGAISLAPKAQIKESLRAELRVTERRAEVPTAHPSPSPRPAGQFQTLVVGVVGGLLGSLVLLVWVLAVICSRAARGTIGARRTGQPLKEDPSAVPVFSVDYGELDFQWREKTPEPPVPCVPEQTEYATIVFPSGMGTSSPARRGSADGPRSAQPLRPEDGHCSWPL
T1 sequence (Q06124 whole entry): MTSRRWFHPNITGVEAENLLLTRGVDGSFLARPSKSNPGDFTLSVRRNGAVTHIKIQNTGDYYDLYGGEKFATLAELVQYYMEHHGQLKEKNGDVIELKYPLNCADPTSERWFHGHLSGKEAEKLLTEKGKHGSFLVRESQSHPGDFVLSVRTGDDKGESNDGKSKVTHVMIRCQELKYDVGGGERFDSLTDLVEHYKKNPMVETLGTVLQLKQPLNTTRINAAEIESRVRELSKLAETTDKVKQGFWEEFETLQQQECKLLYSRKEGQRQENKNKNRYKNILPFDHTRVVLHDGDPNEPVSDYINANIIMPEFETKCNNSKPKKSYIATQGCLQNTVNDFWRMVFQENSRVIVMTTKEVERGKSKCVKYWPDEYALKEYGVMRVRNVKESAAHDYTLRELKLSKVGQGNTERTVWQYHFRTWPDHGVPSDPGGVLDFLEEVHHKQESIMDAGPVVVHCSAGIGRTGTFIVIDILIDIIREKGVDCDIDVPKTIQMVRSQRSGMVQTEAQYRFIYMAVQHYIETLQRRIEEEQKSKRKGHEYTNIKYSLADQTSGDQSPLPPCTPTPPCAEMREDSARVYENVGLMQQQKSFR

## CN(C)c1ccc2nc3ccc(N(C)C)cc3[s+]c2c1 [MTC, 3,7-bis(dimethylamino)-phenothiazine-5-ium chloride]
EL4-OVA-mPDL1 cells; CTL cells by tail vein, MTC 40 mg/kg/day intragastric, PD-1 antibody 10 mg/kg/2 days intraperitoneal, vs CTL cell-only group, FIGS. 5B, C, D
  tumor growth (tumor volume and tumor weight): strongly inhibited tumor growth
EL4-OVA-mPDL1 cells; MTC 40 mg/kg/day vs PD-1 antibody 10 mg/kg/2 days
  therapeutic effect of CTL+MTC compared with CTL+PD-1 antibody treatment group: better therapeutic effect
PD-1 recruitment of SHP2
  binding of PD-1 to SHP2 (Co-IP): prevented the binding of PD-1 to SHP2
EG-7-PD-L1 cells
  killing ability of CTL cells against EG-7-PD-L1: significantly restored
OT-1 CTL cells
  CTL cell division inhibited by PD-L1 protein: reversed the inhibition
[1]
  luciferase activity: increased dramatically
[2]; 1 μM MTC vs 10 μg/mL PD1 antibody
  function of Jurkat cells inhibited by PD-1, compared with the PD-1 antibody group: significantly improved
[2]; Raji-PD-L1 : Jurkat-PD-1-NFAT-LUC 1:1, CD3/CD28 antibody coated plate, 1 μM MTC or 10 μg/mL PD1 antibody
  secretion of IL-2 in the supernatant: sharply enhanced
